Source: US20080015225A1, “Dimeric Piperidine Derivatives” (JANSSEN PHARMACEUTICA N.V., priority 2004, published 2008)

What follows are molecules tested on chicken dorsal root ganglion (DRG) neurons (assay: Neuronal viability assay (calcein-AM) in primary culture of chicken dorsal root ganglion neurons). Conditions: Gallus gallus, DRG neuron, 48 h; survival of chick embryonic day 10 DRG neurons after two days of incubation; calcein-AM fluorescence; 0% = no neurotrophic factor, 100% = 10 ng/ml NGF; pIC50 from dose response curves; read-out: [C1] DRG assay SCORE.
Format: cell-based, chicken (White Leghorn chick embryos)
From the text: This assay is based on a fluorimetric Calcein-AM measurement and addresses the functional response of neurons as a quantitative measure of survival.
Primary Culture of Chicken Dorsal Root Ganglion Neurons
Dorsal root ganglia were dissected from White Leghorn chick embryos at embryonic day 10 as described previously (Skaper S. D. and Varon S. (1986) Brain Research 389, 39-46). The ganglia were trypsinised and dissociated by mild trituration in a HBSS buffer supplemented with 0.6% glucose and 0.08% trypsin. To remove non-neuronal lo cells by differential attachment to culture plastic, the ganglionic cell suspension was diluted to 2.5×10^5 cells/ml and seeded on tissue culture plastic dishes at 10 ml per 100 mm dish. After 2 h preplating, unattached neurons were collected and resuspended into Basal Eagle Medium containing 10% FCS. To remove cell aggregates, the cell suspension was passed through a nylon mesh (50 μM) pore diameter. Neuron-enriched cell suspension was plated at 5×10^4 cells/ml into poly-L-ornithine (100 μg/ml) and laminine (1 μg/ml) coated multiwell 96 plates. Compounds were dissolved in dimethyl sulfoxide and kept as a stock at −20° C. NGF and compounds were diluted in the culture medium and added to the cells immediately after plating. The final concentration of dimethyl sulfoxide in the test medium was 0.1%. After two days of incubation, neuronal viability was assessed with calcein-AM.
Neuronal Viability Assay Using Calcein-AM
Neuronal viability assay using calcein AM was performed as previously described (Bozyczko-Coyne D., McKenna B. W., Connors T. J., and Neff N. T. (1993) Journal of Neuroscience Methods 50, 205-216). For the assay, calcein-AM was diluted in PBS to the final concentration (1 μM). For each experiment an aliquot of calcein-AM (1 mg/ml in DMSO stored at −20° C.) was thawed immediately before use. The medium was removed from the wells and replaced with the calcein-AM solution. Assay plates were incubated for 1 h at 37° C. in a humidified CO2 incubator. Following the incubation, reading was done in a Cytofluor II at an excitation wavelength of 485 nm and an emission wavelength of 530 nm. Each plate had control wells with no neurotrophic factor added (0% survival) and wells with 10 ng/ml NGF (100% survival).
The drugs to be tested were taken from a stock solution and tested at a final concentration ranging from […] to 3.10^−9M. From the thus obtained dose response curves, the pIC50 value was calculated and scored as follows; Score 1=pIC50 value <6, Score 2=pIC50 value in the range of 6 to 8, Score 3 =pIC50 value>8. (in this table NT stands for Not Tested).
Work on O=C(NCCCCCCNC(=O)N1CCC(O)(c2ccc(Cl)c(C(F)(F)F)c2)CC1)N1CCC(O)(c2ccc(Cl)c(C(F)(F)F)c2)CC1 [Compound 48] yielded an IC50 of 0.01 to 1 µM.
For O=C(CCCCCCCC(=O)N1CCC(O)(c2cccc(Cl)c2)CC1)N1CCC(O)(c2cccc(Cl)c2)CC1 [Compound 7], the IC50 was > 1 µM.
In the case of O=C(CCCCCCC(=O)N1CCC(Oc2nc3ccccc3s2)CC1)N1CCC(Oc2nc3ccccc3s2)CC1 [Compound 11], the IC50 is reported as 0.01 to 1 µM.
In the case of O=C(c1ccc(F)cc1)C1CCN(C(=O)CCCCCCCC(=O)N2CCC(C(=O)c3ccc(F)cc3)CC2)CC1 [Compound 45], the IC50 is reported as > 1 µM.
Molecule O=C(NCCCCCCNC(=O)N1CCC(O)(c2ccc(Cl)cc2)CC1)N1CCC(O)(c2ccc(Cl)cc2)CC1 [Compound 28] has an IC50 of 0.01 to 1 µM.
For O=S(=O)(c1ccc(Oc2ccc(S(=O)(=O)N3CCC(O)(c4ccc(Cl)cc4)CC3)cc2)cc1)N1CCC(O)(c2ccc(Cl)cc2)CC1 [Compound 16], the IC50 was 0.01 to 1 µM.
In the case of O=C(c1cccc(C(=O)N2CCC(O)(c3ccc(Cl)c(Cl)c3)CC2)c1)N1CCC(O)(c2ccc(Cl)c(Cl)c2)CC1 [Compound 43], the IC50 is reported as > 1 µM.
For OC1(c2ccc(Cl)cc2)CCN(CC#CCN2CCC(O)(c3ccc(Cl)cc3)CC2)CC1 [Compound 26], the IC50 was < 0.01 µM.
With O=S(=O)(c1ccc(Oc2ccc(S(=O)(=O)N3CCC(O)(c4ccc(Br)cc4)CC3)cc2)cc1)N1CCC(O)(c2ccc(Br)cc2)CC1 [Compound 6] the IC50 was > 1 µM.
With O=C(CCCCCCCC(=O)N1CCC(O)(c2ccc(Cl)c(Cl)c2)CC1)N1CCC(O)(c2ccc(Cl)c(Cl)c2)CC1 [Compound 22] the IC50 was > 1 µM.
O=C(CCCCCCC(=O)N1CCC(OCc2cccc(C(F)(F)F)c2)CC1)N1CCC(OCc2cccc(C(F)(F)F)c2)CC1 [Compound 12] showed an IC50 of 0.01 to 1 µM.
Work on COc1cc2nc(NCC3CCN(C(=O)NCCCCCCNC(=O)N4CCC(CNc5nc6cc(OC)c(OC)cc6s5)CC4)CC3)sc2cc1OC [Compound 27] yielded an IC50 of 0.01 to 1 µM.
O=C(CCCCC(=O)N1CCC(O)(c2ccc(Cl)c(C(F)(F)F)c2)CC1)N1CCC(O)(c2ccc(Cl)c(C(F)(F)F)c2)CC1 [Compound 25] was tested, and the IC50 was > 1 µM.
Molecule O=C(c1ccc(Cl)cc1)C1CCN(C(=O)CCCCC(=O)N2CCC(C(=O)c3ccc(Cl)cc3)CC2)CC1 [Compound 24] has an IC50 of 0.01 to 1 µM.
For C(#CCN1CCC(c2c[nH]c3ccccc23)CC1)CN1CCC(c2c[nH]c3ccccc23)CC1 [Compound 17], the IC50 was 0.01 to 1 µM.
In the case of O=C(c1cccc(C(=O)N2CCC(O)(c3cccc(C(F)(F)F)c3)CC2)c1)N1CCC(O)(c2cccc(C(F)(F)F)c2)CC1 [Compound 44], the IC50 is reported as > 1 µM.
Fc1ccc2c(C3CCN(CC#CCN4CCC(c5noc6cc(F)ccc56)CC4)CC3)noc2c1 [Compound 40] gave an IC50 of 0.01 to 1 µM.
In the case of O=S(=O)(c1ccc(Cc2ccc(S(=O)(=O)N3CCC(O)(c4cccnc4)CC3)cc2)cc1)N1CCC(O)(c2cccnc2)CC1 [Compound 5], the IC50 is reported as 0.01 to 1 µM.
O=S(=O)(c1ccc(Oc2ccc(S(=O)(=O)N3CCC(O)(c4cccc(Cl)c4)CC3)cc2)cc1)N1CCC(O)(c2cccc(Cl)c2)CC1 [Compound 15] showed an IC50 of 0.01 to 1 µM.
Molecule c1ccc2c(CC3CCN(CCCN4CCC(Cc5c[nH]c6ccccc56)CC4)CC3)c[nH]c2c1 [Compound 39] has an IC50 of 0.01 to 1 µM.
O=C(c1cccc(C(F)(F)F)c1)C1CCN(C(=O)NCCCCNC(=O)N2CCC(C(=O)c3cccc(C(F)(F)F)c3)CC2)CC1 [Compound 38] showed an IC50 of 0.01 to 1 µM.
For O=C(Nc1ccc(Cc2ccc(NC(=O)N3CCC(O)(c4ccc(F)cc4)CC3)cc2)cc1)N1CCC(O)(c2ccc(F)cc2)CC1 [Compound 32], the IC50 was > 1 µM.
O=C(c1cccc(C(=O)N2CCC(O)(c3ccc(Cl)c(C(F)(F)F)c3)CC2)c1)N1CCC(O)(c2ccc(Cl)c(C(F)(F)F)c2)CC1 [Compound 21] gave an IC50 of 0.01 to 1 µM.
OC(CN1CCC(O)(c2ccc(Cl)cc2)CC1)CN1CCC(O)(c2ccc(Cl)cc2)CC1 [Compound 19] gave an IC50 of 0.01 to 1 µM.
O=C(CCCCCCCC(=O)N1CCC(O)(c2ccc(Cl)c(C(F)(F)F)c2)CC1)N1CCC(O)(c2ccc(Cl)c(C(F)(F)F)c2)CC1 [Compound 20] was tested, and the IC50 was 0.01 to 1 µM.
Molecule O=C(Nc1ccc(NC(=O)N2CCC(O)(c3cccc(C(F)(F)F)c3)CC2)cc1)N1CCC(O)(c2cccc(C(F)(F)F)c2)CC1 [Compound 33] has an IC50 of 0.01 to 1 µM.
O=C(NCCCCCCNC(=O)N1CCC(O)(c2cccc(C(F)(F)F)c2)C(O)C1)N1CCC(O)(c2cccc(C(F)(F)F)c2)C(O)C1 (stereo not drawn) [Compound 3] showed an IC50 of 0.01 to 1 µM.
CC(C)(C)Cc1nc(C2CCN(C(=O)CCCCCC(=O)N3CCC(c4noc(CC(C)(C)C)n4)CC3)CC2)no1 [Compound 4] was tested, and the IC50 was > 1 µM.
O=C(NCCCCCCNC(=O)N1CCC(Cc2c[nH]c3ccccc23)CC1)N1CCC(Cc2c[nH]c3ccccc23)CC1 [Compound 29] gave an IC50 of 0.01 to 1 µM.
For O=C(c1ccc(F)cc1)C1CCN(CC#CCN2CCC(C(=O)c3ccc(F)cc3)CC2)CC1 [Compound 1], the IC50 was < 0.01 µM.
Molecule O=C(NCCCCCCNC(=O)N1CCC(Cc2nc3ccccc3s2)CC1)N1CCC(Cc2nc3ccccc3s2)CC1 [Compound 36] has an IC50 of 0.01 to 1 µM.
OC1(c2ccc(Cl)c(Cl)c2)CCN(CC#CCN2CCC(O)(c3ccc(Cl)c(Cl)c3)CC2)CC1 [Compound 47] showed an IC50 of 0.01 to 1 µM.
With O=S(=O)(c1ccc(Cc2ccc(S(=O)(=O)N3CCC(O)(c4ccc(Cl)c(Cl)c4)CC3)cc2)cc1)N1CCC(O)(c2ccc(Cl)c(Cl)c2)CC1 [Compound 13] the IC50 was > 1 µM.
COc1ccc(-c2noc(C3CCN(C(=O)c4ccc(-c5ccc(C(=O)N6CCC(c7nc(-c8ccc(OC)c(OC9CCCC9)c8)no7)CC6)cc5)cc4)CC3)n2)cc1OC1CCCC1 [Compound 41] was tested, and the IC50 was 0.01 to 1 µM.
O=C(CCCCC(=O)N1CCC(OCc2cccc(C(F)(F)F)c2)CC1)N1CCC(OCc2cccc(C(F)(F)F)c2)CC1 [Compound 10] gave an IC50 of 0.01 to 1 µM.
O=C(Nc1ccc(NC(=O)N2CCC(O)(c3ccc(Cl)c(C(F)(F)F)c3)CC2)cc1)N1CCC(O)(c2ccc(Cl)c(C(F)(F)F)c2)CC1 [Compound 34] was tested, and the IC50 was 0.01 to 1 µM.
For O=C(NCCCCCCNC(=O)N1CCC(c2noc3cc(F)ccc23)CC1)N1CCC(c2noc3cc(F)ccc23)CC1 [Compound 30], the IC50 was 0.01 to 1 µM.
Work on O=C(CCCCCCCC(=O)N1CCC(c2noc3cc(F)ccc23)CC1)N1CCC(c2noc3cc(F)ccc23)CC1 [Compound 42] yielded an IC50 of 0.01 to 1 µM.
c1ccc2c(c1)CCN2C1CCN(CCCCCCCCCCCCN2CCC(N3CCc4ccccc43)CC2)CC1 [Compound 2] was tested, and the IC50 was 0.01 to 1 µM.
With OC(CN1CCC(O)(c2cccc(C(F)(F)F)c2)C(O)C1)CN1CCC(O)(c2cccc(C(F)(F)F)c2)C(O)C1 (stereo not drawn) [Compound 18] the IC50 was 0.01 to 1 µM.
Molecule O=S(=O)(c1ccc(Oc2ccc(S(=O)(=O)N3CCC(O)(c4ccc(Cl)c(Cl)c4)CC3)cc2)cc1)N1CCC(O)(c2ccc(Cl)c(Cl)c2)CC1 [Compound 14] has an IC50 of 0.01 to 1 µM.
Work on O=C(c1ccc(Cl)cc1)C1CCN(C(=O)CCCCCCCC(=O)N2CCC(C(=O)c3ccc(Cl)cc3)CC2)CC1 [Compound 23] yielded an IC50 of 0.01 to 1 µM.
